Laboratory results: patent publication US11214803B2, “Modulators of YAP1 expression” (Ionis Pharmaceuticals, Inc., priority 2019, dated 2022)
Strand notation (5' to 3'): a small letter for the sugar, then the base; units joined by * are phosphorothioate-linked, units joined directly phosphodiester-linked; [ ] holds rarer units or linkages, { } end groups; capitals alone tell only the bases. k = constrained ethyl (cEt); [5mC] = 5-methylcytosine; d = 2'-deoxy (DNA)

Test system: Yap1 mRNA
Experiment: Antisense inhibition of human Yap1 in A-431 cells by cEt gapmers, single dose (Example 3, RTS36584)
Format: cell-based
Conditions: Table 8; A-431 cells, 5,000 cells per well, free uptake, 2,000 nM, approximately 48 hours; RTS36584; normalized to RIBOGREEN; Yap1 mRNA relative to untreated control cells
Description: Modified oligonucleotides were designed to target a Yap1 nucleic acid and were tested for their effect on Yap1 mRNA level in vitro. The modified oligonucleotides were tested in a series of experiments that had similar culture conditions. Cultured A-431 cells at a density of 5,000 cells per well were treated using free uptake with 2,000 nM of modified oligonucleotide. After a treatment period of approximately 48 hours, RNA was isolated from the cells and Yap1 mRNA levels were measured by quantitative real-time RTPCR. Human primer probe set RTS36584 (forward sequence […], designated herein as SEQ ID NO.: 14; reverse sequence […], designated herein as SEQ ID NO.: 15; probe sequence […], designated herein as SEQ ID NO.: 16) was used to measure mRNA levels. Yap1 mRNA levels were normalized to total RNA content, as measured by RIBOGREEN®. Results are presented in the tables below as percent control of the amount of Yap1 mRNA relative to untreated control cells (% UTC). The modified oligonucleotides with percent control values marked with an asterisk (*) target the amplicon region of the primer probe set. Additional assays may be used to measure the potency and efficacy of the modified oligonucleotides targeting the amplicon region.
The newly designed modified oligonucleotides in the Tables below were designed as 3-10-3 cEt gapmers. The gapmers are 16 nucleosides in length, wherein the central gap segment comprises of ten 2′-deoxynucleosides and is flanked by wing segments on the 5′ direction and the 3′ direction comprising three nucleosides each. Each nucleoside in the 5′ wing segment and each nucleoside in the 3′ wing segment has a cEt sugar modification. The internucleoside linkages throughout each gapmer are phosphorothioate (P═S) linkages. All cytosine residues throughout each gapmer are 5-methylcytosines.
“Start site” indicates the 5′-most nucleoside to which the gapmer is targeted in the human gene sequence. “Stop site” indicates the 3′-most nucleoside to which the gapmer is targeted human gene sequence. […] Activity of the modified oligonucleotide may be defined in a different experiment.

First: 958394 (antisense kT*kT*kG*dA*dA*dA*d[5mC]*d[5mC]*dT*dG*dA*dT*d[5mC]*k[5mC]*kT*kT) [Compound 958394]
Second: 958361 (antisense kG*k[5mC]*kT*d[5mC]*dG*dA*dA*d[5mC]*dA*dT*dG*d[5mC]*dT*kG*kT*kG) [Compound 958361]
The “YAP1 (% UTC)” value of the first is higher: 54 % UTC for the first, 8 % UTC for the second.

With “958407 (antisense kA*kA*kT*dA*d[5mC]*dT*dG*dA*dT*d[5mC]*dT*dG*d[5mC]*kA*kG*k[5mC]) [Compound 958407]” the “YAP1 (% UTC)” value was 35 % UTC.

Same assay, conditions: Table 9; A-431 cells, 5,000 cells per well, free uptake, 2,000 nM, approximately 48 hours; RTS36584; normalized to RIBOGREEN; Yap1 mRNA relative to untreated control cells

With “958581 (k[5mC]*kT*kG*d[5mC]*dT*dG*dA*dT*dA*dT*dA*dT*dA*kA*kG*kA; antisense) [Compound 958581]” the “YAP1 (% UTC)” value was 26 % UTC.

Same assay, conditions: Table 10; A-431 cells, 5,000 cells per well, free uptake, 2,000 nM oligonucleotide, approx. 48 hours; primer probe set RTS36584; Yap1 mRNA normalized to RIBOGREEN, percent of untreated control

First: 958547 (k[5mC]*kA*k[5mC]*dA*dT*dA*d[5mC]*dT*d[5mC]*dT*dA*dG*dT*kT*kA*k[5mC]; antisense) [Compound 958547]
Second: 958637 (antisense k[5mC]*k[5mC]*kG*d[5mC]*dA*dG*dA*dG*dA*dG*dA*dA*dA*k[5mC]*kT*k[5mC]) [Compound 958637]
The “YAP1 (% UTC)” value of the first is lower: 4 % UTC for the first, 101 % UTC for the second.

Same assay, conditions: Table 11; A-431 cells, 5,000 cells per well, free uptake, 2,000 nM oligonucleotide, approx. 48 hours; primer probe set RTS36584; Yap1 mRNA normalized to RIBOGREEN, percent of untreated control

First: 958618 (antisense kA*kG*k[5mC]*d[5mC]*dA*dA*dG*dA*dG*dG*dT*dG*dG*kT*k[5mC]*kT) [Compound 958618]
Second: 958808 (kA*kG*k[5mC]*dG*dA*dT*dT*dG*dG*d[5mC]*d[5mC]*dT*d[5mC]*k[5mC]*k[5mC]*kA; antisense) [Compound 958808]
The “YAP1 (% UTC)” value of the first is lower: 36 % UTC for the first, 59 % UTC for the second.

Going from “958803 (antisense kG*kA*kT*dA*dA*dT*d[5mC]*dA*dT*d[5mC]*d[5mC]*dT*d[5mC]*kA*kG*k[5mC]) [Compound 958803]” to “958453 (antisense kG*k[5mC]*k[5mC]*dT*d[5mC]*dA*dT*dG*dG*dG*d[5mC]*dA*d[5mC]*kG*kG*kT) [Compound 958453]”, the “YAP1 (% UTC)” value rises from 24 % UTC to 70 % UTC.

Going from “958538 (kA*kT*k[5mC]*d[5mC]*dA*dG*dG*dG*dT*d[5mC]*dA*dA*dT*kT*kT*kT; antisense) [Compound 958538]” to “958478 (antisense kG*kG*kA*dA*dA*dT*dT*dT*d[5mC]*d[5mC]*dG*dG*dT*kG*k[5mC]*kA) [Compound 958478]”, the “YAP1 (% UTC)” value rises from 10 % UTC to 14 % UTC.

Same assay, conditions: Table 12; A-431 cells, 5,000 cells per well, free uptake, 2,000 nM modified oligonucleotide, approx. 48 hours; RTS36584; normalized to RIBOGREEN; Yap1 mRNA relative to untreated control cells

Compared with “958544 (kG*k[5mC]*kT*dA*dA*dA*dT*dT*d[5mC]*dA*dA*d[5mC]*dT*kA*k[5mC]*k[5mC]; antisense) [Compound 958544]”, “958614 (antisense kG*kT*k[5mC]*dT*dT*dG*dT*dT*d[5mC]*dT*dT*dA*dT*kG*kG*kT) [Compound 958614]” is lower in “YAP1 (% UTC)” value: 8 % UTC for the first, 6 % UTC for the second.

First: 958749 (antisense k[5mC]*k[5mC]*kA*d[5mC]*dA*dA*dG*dG*dG*d[5mC]*dA*dG*dT*kA*k[5mC]*kG) [Compound 958749]
Second: 958764 (antisense kT*kG*kG*dG*dT*d[5mC]*dT*d[5mC]*dT*dT*dG*dA*dT*kT*kT*k[5mC]) [Compound 958764]
The “YAP1 (% UTC)” value of the first is higher: 51 % UTC for the first, 34 % UTC for the second.

First: 958654 (kA*kA*kT*dG*dG*dA*dG*dT*dG*dG*d[5mC]*d[5mC]*dG*kG*kG*k[5mC]; antisense) [Compound 958654]
Second: 958579 (kA*kT*k[5mC]*dT*dT*dA*dA*dT*d[5mC]*dT*dG*dT*dG*kG*k[5mC]*kT; antisense) [Compound 958579]
The “YAP1 (% UTC)” value of the first is higher: 110 % UTC for the first, 4 % UTC for the second.

Going from “958699 (antisense kG*kA*k[5mC]*dT*dA*dG*dA*dA*dA*dG*dA*dT*d[5mC]*kA*kT*k[5mC]) [Compound 958699]” to “958814 (kG*kG*k[5mC]*dT*dA*dT*dG*d[5mC]*d[5mC]*dT*d[5mC]*dT*d[5mC]*kT*kT*kA; antisense) [Compound 958814]”, the “YAP1 (% UTC)” value rises from 20 % UTC to 214 % UTC.

Same assay, conditions: Table 13; A-431 cells, 5,000 cells per well, free uptake, 2,000 nM modified oligonucleotide, approx. 48 hours; RTS36584; normalized to RIBOGREEN; Yap1 mRNA relative to untreated control cells

First: 958525 (kA*kT*kG*dA*dA*dG*dG*dT*dA*dA*dA*d[5mC]*d[5mC]*kA*k[5mC]*kT; antisense) [Compound 958525]
Second: 958450 (antisense kG*kG*kT*d[5mC]*dG*d[5mC]*d[5mC]*dG*d[5mC]*dG*dG*dG*dT*kG*k[5mC]*k[5mC]) [Compound 958450]
The “YAP1 (% UTC)” value of the first is lower: 3 % UTC for the first, 59 % UTC for the second.

With “958630 (antisense kG*k[5mC]*kG*dG*dT*dA*dA*d[5mC]*dT*d[5mC]*dT*dT*d[5mC]*kT*kT*kT) [Compound 958630]” the “YAP1 (% UTC)” value was 52 % UTC.

Same assay, conditions: Table 27; Yap1 mRNA by 3-10-3 cEt gapmers targeting SEQ ID NO.: 1, and 2; percent of untreated control

First: 1074605 (DNA kT*k[5mC]*kA*dA*d[5mC]*dT*dA*d[5mC]*d[5mC]*dA*dA*dT*dA*kT*kA*k[5mC]) [compound 1074605]
Second: 1075981 (kA*kA*kG*d[5mC]*dA*dA*dT*dA*dT*d[5mC]*d[5mC]*dT*dA*k[5mC]*kA*k[5mC]; antisense) [compound 1075981]
The “YAP1 (% UTC)” value of the first is lower: 20 % UTC for the first, 40 % UTC for the second.

First: 1074637 (antisense kA*kA*kT*d[5mC]*dT*dA*dT*d[5mC]*dT*dT*d[5mC]*d[5mC]*d[5mC]*kA*kA*kG) [compound 1074637]
Second: 1075597 (antisense kA*kT*kT*dA*dA*d[5mC]*dA*dT*dT*dT*dG*d[5mC]*d[5mC]*k[5mC]*kG*k[5mC]) [compound 1075597]
The “YAP1 (% UTC)” value of the first is lower: 36 % UTC for the first, 47 % UTC for the second.

In the case of “1075245 (k[5mC]*k[5mC]*kT*dA*dA*dT*dA*dT*dG*d[5mC]*dT*dA*dT*kT*kG*kT; antisense) [compound 1075245]”, the “YAP1 (% UTC)” value is reported as 34 % UTC.

Same assay, conditions: Table 28; Yap1 mRNA as percent of untreated control; 3-10-3 cEt gapmers targeting SEQ ID NO.: 1, and 2

Compared with “1076014 (kA*kA*kT*d[5mC]*dA*dA*d[5mC]*d[5mC]*dT*dA*dT*dG*dA*kG*kG*kT; antisense) [compound 1076014]”, “1074510 (kA*kT*kA*d[5mC]*dA*dT*dT*d[5mC]*d[5mC]*dA*d[5mC]*dT*dA*k[5mC]*k[5mC]*kA; antisense) [compound 1074510]” is lower in “YAP1 (% UTC)” value: 98 % UTC for the first, 10 % UTC for the second.

First: 1075054 (antisense k[5mC]*kA*kA*dT*dA*dT*dA*dT*dA*d[5mC]*dT*dT*dG*kA*kT*k[5mC]) [compound 1075054]
Second: 1074862 (kT*kA*kT*dG*dA*dG*d[5mC]*dA*dT*dG*d[5mC]*dT*d[5mC]*kT*kT*kA; antisense) [compound 1074862]
The “YAP1 (% UTC)” value of the first is lower: 48 % UTC for the first, 56 % UTC for the second.

Same assay, conditions: Table 29; Yap1 mRNA as percent of untreated control; 3-10-3 cEt gapmers targeting SEQ ID NO.: 1, and 2

Going from “1074383 (kT*k[5mC]*kA*dA*dG*dG*dT*dA*dG*dT*d[5mC]*dT*dG*kG*kG*kA; antisense) [compound 1074383]” to “1075343 (antisense kA*kA*k[5mC]*dT*dA*dA*dA*dA*dG*dG*dG*dA*dG*kT*kA*kG) [compound 1075343]”, the “YAP1 (% UTC)” value rises from 40 % UTC to 89 % UTC.

In the case of “1074927 (antisense kT*kA*k[5mC]*dA*dA*d[5mC]*dA*dG*dG*d[5mC]*d[5mC]*dT*dG*k[5mC]*kA*kA) [compound 1074927]”, the “YAP1 (% UTC)” value is reported as 74 % UTC.

Same assay, conditions: Table 34; Yap1 mRNA as percent of untreated control; 3-10-3 cEt gapmers targeting SEQ ID NO: 1 and 2; single dose

With “1074292 (antisense k[5mC]*kT*kG*dT*dT*dT*d[5mC]*dA*d[5mC]*dT*dG*dG*dA*kG*k[5mC]*kA) [compound 1074292]” the “YAP1 (% UTC)” value was 10 % UTC.

Same assay, conditions: Table 35; Yap1 mRNA as percent of untreated control; 3-10-3 cEt gapmers targeting SEQ ID NO: 1 and 2; single dose

Compared with “1075157 (k[5mC]*k[5mC]*kA*dG*dA*dA*dA*dA*dT*d[5mC]*dA*dT*dA*kG*kT*kA; antisense) [compound 1075157]”, “1074997 (antisense kG*k[5mC]*k[5mC]*dG*d[5mC]*dG*dA*dG*dG*dA*dA*dA*dA*kT*kA*kA) [compound 1074997]” is higher in “YAP1 (% UTC)” value: 19 % UTC for the first, 119 % UTC for the second.
